The values below come from ChEMBL document CHEMBL4354823, “Discovery and in Vivo Evaluation of Macrocyclic Mcl-1 Inhibitors Featuring an α-Hydroxy Phenylacetic Acid Pharmacophore or Bioisostere” (J Med Chem, 2019).

Bounds are passed on as bounds.

A short description of series [1]: in vitro. The following applies: rat, liver microsomes. (In general: Microsomes from liver hold many membrane-bound enzymes, among them those of drug oxidation.)
Series [2] is described as follows: in vitro. The following applies: human, liver microsomes.
Series [3] is described as follows: in vivo. The following applies: Sprague-Dawley, rat, iv, 0.5 mg/kg.
Series [4] can be described thus: in vivo. The following applies: Sprague-Dawley, rat, iv, 0.5 mg/kg. This is another data set of the same source.
Series [5] is described as follows: in vivo. The following applies: Sprague-Dawley, rat, po, 2 mg/kg.
Series [6] can be described thus: physchem. The following applies: simulated gastric fluid, pH 1.7.
Series [7] can be described thus: physchem. The following applies: simulated gastric fluid, pH 1.7. This is another data set of the same source.
The nature of series [8]: physchem. The following applies: simulated intestinal fluid, pH 6.6.
Series [9] in a line: physchem. The following applies: simulated intestinal fluid, pH 6.6. The source holds these as a separate data set.
For series [10] the following is noted: rat, in vivo, iv, 0.5 mg/kg.
Series [11] is described as follows: in vitro. The following applies: pig, LLC-PK1.
The conditions of series [12]: dog, in vivo, iv, 0.5 mg/kg.
The conditions of series [13]: mouse, in vivo, po, 60 mg/kg, 6 h.
Series [14] can be described thus: in vivo. The following applies: Beagle, dog, iv, 0.5 mg/kg.
Series [15] is described as follows: in vivo. The following applies: athymic nude, mouse, plasma, po, 60 mg/kg.
A short description of series [16]: in vivo. The following applies: Beagle, dog, po, 2 mg/kg.
Series [17] in a line: Unbound clearance in CD-1 mouse at 1 mg/kg, iv. The series is classed as ADME, organism-based. The following applies: in vivo.
For series [18] the following is noted: rat, in vivo, iv, 0.5 mg/kg. This is another data set of the same source.
For series [19] the following is noted: mouse, in vivo, po, 30 mg/kg, 6 h.
Series [20] is described as follows: in vivo. The following applies: athymic nude, mouse, plasma, po, 30 mg/kg.
Series [21] can be described thus: Clearance in CD-1 mouse at 1 mg/kg, iv. The series is classed as ADME, organism-based. The following applies: in vivo.
Series [22] is described as follows: Oral bioavailability in CD-1 mouse at 3 mg/kg. The series is classed as ADME, organism-based. The following applies: in vivo.

As a reminder, the microsomal CLint is the rate of metabolic loss divided by the concentration. Read a high microsomal CLint as rapid turnover. What is called clearance is a measure of how efficiently the substance is removed, as volume per time. A lower clearance goes with a low capacity for elimination. By half-life is commonly meant the time in which the quantity being followed falls by half. Lower therefore signals fast loss. With `CN1CC/C=C/[C@H](OCCN2CC(F)C2)[C@@H]2CC[C@H]2CN2C[C@@]3(CCCc4cc(Cl)ccc43)COc3ccc(cc32)[C@@](O)(C(=O)NS(=O)(=O)N(C)C)CC1=O`, the microsomal CLint in “in vitro [1]” and in “in vitro [2]” was less than 14 µL/min/mg in each case. Besides, in the series “in vivo [3]”, the clearance is 11.7 mL/min/kg. Further, in the series “in vivo [4]”, the half-life is 4.5 h.

The term bioavailability denotes dose-corrected exposure relative to a reference, in per cent. The low end stands for little systemic uptake, the high end for much systemic uptake. Turning to `COC(=O)[C@@]1(O)CC(=O)N(C)CC/C=C/[C@H](OC)[C@@H]2CC[C@H]2CN2C[C@@]3(CCCc4cc(Cl)ccc43)COc3ccc1cc32`, the clearance in the series “in vivo [3]” is 43.3 mL/min/kg. The bioavailability in “in vivo [5]” is 2%. For the same compound, the half-life in the series “in vivo [4]” was 2.5 h.

Take `CN1CC/C=C/[C@H](OCCN2CCC(F)(F)CC2)[C@@H]2CC[C@H]2CN2C[C@@]3(CCCc4cc(Cl)ccc43)COc3ccc(cc32)[C@@](O)(C(=O)NS(=O)(=O)N(C)C)CC1=O`: the figures for the microsomal CLint in “in vitro [1]” and in “in vitro [2]” were less than 14 µL/min/mg and 43 µL/min/mg, respectively.

As for `CN(C)C(=O)CO[C@H]1/C=C/CCN(C)C(=O)C[C@](O)(C(=O)NS(=O)(=O)N(C)C)c2ccc3c(c2)N(C[C@@H]2CC[C@H]21)C[C@@]1(CCCc2cc(Cl)ccc21)CO3`, the intrinsic metabolic clearance (microsomal CLint) was less than 14 µL/min/mg in “in vitro [1]” and 19 µL/min/mg in the series “in vitro [2]”. For the same compound, the clearance in “in vivo [3]” is 21.7 mL/min/kg. Besides, the half-life in “in vivo [4]” is 3.1 h.

As for `COC1CN(CCO[C@H]2/C=C/CCN(C)C(=O)C[C@](O)(C(=O)NS(=O)(=O)N(C)C)c3ccc4c(c3)N(C[C@@H]3CC[C@H]32)C[C@@]2(CCCc3cc(Cl)ccc32)CO4)C1`, the clearance in “in vivo [3]” was 58.3 mL/min/kg. Besides, the bioavailability in the series “in vivo [5]” amounted to 6%. Besides, the half-life in “in vivo [4]” was 6.3 h.

`CN1CC/C=C/[C@H](OCCOCC(F)F)[C@@H]2CC[C@H]2CN2C[C@@]3(CCCc4cc(Cl)ccc43)COc3ccc(cc32)[C@@](O)(C(=O)NS(=O)(=O)N(C)C)CC1=O` gave a clearance in “in vivo [3]” of 0.833 mL/min/kg. This compound also gave a bioavailability in the series “in vivo [5]” of 41%. In “in vivo [4]”, this compound had a half-life of 6.5 h.

Regarding `CN1CC/C=C/[C@H](OCCN2CCOCC2)[C@@H]2CC[C@H]2CN2C[C@@]3(CCCc4cc(Cl)ccc43)COc3ccc(cc32)[C@@](O)(C(=O)NS(=O)(=O)N(C)C)CC1=O`, the microsomal CLint in “in vitro [1]” was less than 14 µL/min/mg; in “in vitro [2]”, 21 µL/min/mg. Moreover, the clearance in “in vivo [3]” was 15 mL/min/kg. Also, the bioavailability in the series “in vivo [5]” is 9%. The half-life in the series “in vivo [4]” was 2.8 h.

One may read the amount remaining as the share of the starting amount still present when the sample was taken. A lower amount remaining goes with more turnover. As usually defined, the Papp is the rate of passage across a membrane or cell layer, normalised by area and donor concentration. The low end stands for poor permeation, the high end for ready permeation. Turning to `CO[C@H]1/C=C/CCN(C)C(=O)C[C@](O)(C(=O)O)c2ccc3c(c2)N(C[C@@H]2CC[C@H]21)C[C@@]1(CCCc2cc(Cl)ccc21)CO3`, the share remaining at 0.5 h, 1 µM is 49% in the series “physchem [6]” and 100% in “physchem [8]”. For the same compound, the amount remaining at 1 h, 1 µM in the series “physchem [7]” is 26%; in “physchem [9]”, 100%. In the series “in vivo [3]”, the clearance fell in the range of 23.3 to 23.8 mL/min/kg. The same compound showed a CL in series [10] of 31%. The bioavailability in “in vivo [5]” was determined as 0%. The compound also showed a half-life in the series “in vivo [4]” of 6.8 h. This compound gave a Papp in the series “in vitro [11]” of 4.5 ×10⁻⁶ cm/s.

As to `CN1CC/C=C/[C@H](OCCN2CCS(=O)(=O)CC2)[C@@H]2CC[C@H]2CN2C[C@@]3(CCCc4cc(Cl)ccc43)COc3ccc(cc32)[C@@](O)(C(=O)NS(=O)(=O)N(C)C)CC1=O`, the microsomal CLint in “in vitro [1]” and in the series “in vitro [2]” was less than 14 µL/min/mg in each case. For the same compound, the clearance in the series “in vivo [3]” was 60 mL/min/kg. Moreover, the bioavailability in the series “in vivo [5]” is 6%. Besides, the half-life in “in vivo [4]” is 2.2 h.

`CN1CC/C=C/[C@H](OCCCN2CC(F)(F)C2)[C@@H]2CC[C@H]2CN2C[C@@]3(CCCc4cc(Cl)ccc43)COc3ccc(cc32)[C@@](O)(C(=O)NS(=O)(=O)N(C)C)CC1=O` had a clearance in the series “in vivo [3]” of 3.33 mL/min/kg. This compound registered a bioavailability in the series “in vivo [5]” of 52%. The same compound gave a half-life in “in vivo [4]” of 5.5 h.

In turn, `CO[C@H]1/C=C/CCN(C)C(=O)C[C@](O)(C(=O)NS(C)(=O)=O)c2ccc3c(c2)N(C[C@@H]2CC[C@H]21)C[C@@]1(CCCc2cc(Cl)ccc21)CO3` showed a clearance in the series “in vivo [3]” of 26.7 mL/min/kg. In “in vivo [5]”, this compound came in with a bioavailability of 8%. In “in vivo [4]”, this compound showed a half-life of 2.6 h.

On to `CO[C@H]1/C=C/C[C@H](C)[C@@H](C)S(=O)(=O)NC(=O)c2ccc3c(c2)N(C[C@@H]2CC[C@H]21)C[C@@]1(CCCc2cc(Cl)ccc21)CO3` [TAPOTOCLAX], for which the amount remaining at 0.5 h, 1 µM in “physchem [6]” and in the series “physchem [8]” was 90% throughout. The CL free in series [12] stood at 22.3 mL/min/kg; in series [17], 67 mL/min/kg; in series [18] it was 138 mL/min/kg. For the same compound, the “Cp(f)” value in series [13] was 0.529 µM; in series [19], 0.368 µM. In addition, the clearance in the series “in vivo [14]” is 0.333 mL/min/kg; in “in vivo [3]”, 1 mL/min/kg; in series [21], 0.5 mL/min/kg. For the same compound, the results for the amount remaining at 1 h, 1 µM in the series “physchem [7]” and in the series “physchem [9]” were 84% and 81%, respectively. Also, the concentration at 6 h in the series “in vivo [15]” is 70.9 µM; in “in vivo [20]”, 49.3 µM. Moreover, the values for the bioavailability (in “in vivo [16]”; in the series “in vivo [5]”; in [22]) were 27%, 34% and 31%, respectively. The half-life in the series “in vivo [4]” is 18.2 h.
